These results are taken from US7973014B2, “Medicinal composition containing ginseng secondary glycosides, its preparation method and application” (National Institute of Pharmaceutical R&D Co., Ltd., priority 2005, dated 2011).

Series [1] relates to coronary blood flow in experimental myocardial ischemia dogs. The series is described as follows: Coronary blood flow in experimental myocardial ischemia dogs. In kind it is in vivo, dog. The conditions noted are these: 5 mg/kg. The method, then: (§1) Test dogs were divided into the following 8 groups, 6 dogs per group: (1) blank control group, 3 ml/kg physiological saline; (2) 5 mg/kg Diltiazem group; (3) 200 mg/kg “Di'ao Xinxuekang” group; (4) 200 mg/kg ginseng root total ginsenosides (briefly referred as root total ginsenosides) group; (5) 200 mg/kg ginseng stem/leave total ginsenosides (briefly referred as stem/leave total ginsenosides) group; (6) 25 mg/kg total secondary ginsenosides group; (7) 50 mg/kg total secondary ginsenosides group; and (8) 100 mg/kg total secondary ginsenosides group. All test drugs were formulated with distilled water to have the same volume (3 ml/kg), and were administered through duodenum.
(§2) Animals each was anesthetized with sodium pentobarbital (30 mg/kg), operated to form pericardium bed; left circumflex artery was separated, an electromagnetic flow meter probe was placed therein to measure cardiac coronary blood flow (CCBF); middle section of anterior descending coronary artery was separated, braided for ligation to create an experimental acute myocardial ischemia model; a multipoint fixed epicardial lead was sutured and connected with a multichannel electrophysiolograph to record epicardial electrogram. Coronary artery was ligated for 15 minutes, and recorded as control value before administration of drug, test drug or physiological saline was administered via duodenum, 30 mapping point epicardial electrograms were recorded at 15, 30, 45, 60, 90, 120, 180 minutes after the administration of drug, and the degree of myocardial ischemia (Σ-ST, total increase of mv number in S-T section) and the range of myocardial ischemia (N-ST, total increase of point numberin S-T section) were calculated. Blood samples were taken at orifice of coronary sinus vein by cannulation via external jugular vein before ischemia, at 15 minutes after ischemia (before administration of drug), and at 0, 30, 60, 90, 120, 180 minutes after administration of drug, the contents of oxygen in the coronary venous blood were measured by oxyhemograph; cannulation was made to common carotid artery, where the contents of […] in the arterial blood were measured, which together with coronary blood flow were used to calculate myocardial oxygen consumption (MOC). Blood samples were taken at the abovementioned time points to measure the levels of serum creatine kinase (CK) and lactic acid dehydrogenase (LDH); and the levels of blood plasma endothelin (ET), thromboxane B2 (TXB2) and 6-keto-prostaglandin F1a (6-Keto-PGF1a) were measured by an automatic γ-counter radioimmunologically.

Series [2] concerns acute myocardial infarction in dogs. The series is described as follows: Range of acute myocardial infarction in dogs, N-BT staining. The format is in vivo, dog. The conditions noted are these: 5 mg/kg. How it is done: as §1
Recording was completed at 180 minutes after administration of drug, heart was taken out immediately, cardiac ventricle was cross-sectioned parallel to coronary sulcus under heart ligature to form 5 slices, which were placed in N-BT staining solution and stained at room temperature for 15 minutes. Infarction zone (N-BT non-staining zone) and non-infarction zone (N-BT staining zone) at both sides of each slice of cardiac muscle were measured by using a multimedia color pathologic image analysis system to calculate the area of each slice of cardiac muscle, the total area of the cardiac ventricle and the total area of the infarction zones. The percentages of infarction zones based on the cardiac ventricle and on the whole heart were calculated.
(§3) The test results were statistically analyzed, and t-test was used to determine the significance.

Series [3] deals with acute myocardial ischemia induced by coronary artery ligation in anesthetized dogs. Briefly: Myocardial ischemia induced by coronary artery ligation in anesthetized dogs, epicardial electrogram mapping. In kind it is in vivo, dog. The conditions noted are these: 5 mg/kg. The method, then: as §1, §2, §3
For series [4], the system named is rat arrhythmia induced by BaCl2. Briefly: Arrhythmia induced by BaCl2 in rats. The format is in vivo. The conditions noted are these: 50 mg/kg. The method, then: 70 SD rats, including half male and half female, were randomly divided into: control group, Diltiazem group, 200 mg/kg Di'ao Xinxuekang group, 200 mg/kg the root total ginsenosides group, and 200, 100, 50, 25 mg/kg dosage groups of the total secondary ginsenosides. On the 7th day of administration of drug, 30 minutes after the administration of drug, each of the rats was anesthetized by intraperitoneal injection of 300 mg/kg 10% chloral hydrate, fixed in supine position on rat bench. The chart speed was set at 50 mm/s, and the sensitivity was set at 20 mm/mv. After printing under standard voltage, normal II Lead electrocardiogram was recorded for a certain period, then the rat was administered with 4 mg/kg barium chloride via sublingual vein and observed immediately to record the electrocardiograms at 1, 5, 10, 15, 20, 25, 30 minutes after the administration of barium chloride. The heart rate was calculated and compared with the reference value before administration, and the onset time and time period of arrhythmia were compared as well. The incidence rates of ventricular premature beat (VP), ventricular tachycardia (VT) and ventricular fibrillation (VF) were calculated.

Series [5] concerns thrombosis in experimental rat jugular arteriovenous bypass. Briefly: Thrombosis in rat jugular arteriovenous bypass. The format is in vivo. The conditions noted are these: for inhibition at 50 mg/kg: Rattus norvegicus. The method, then:
70 Rats, half male and half female, weighting 250-300 g, were randomly divided into 7 groups, 10 rats per group, and fed for one week in advance. The said 7 groups included high, middle and low dosage groups of the total secondary ginsenosides (200, 100 and 50 mg/kg), and control groups: Diltiazem group (50 mg/kg), Di'ao Xinxuekang group (200 mg/kg), root total ginsenosides group (200 mg/kg) and blank control group (water). administered All the drugs and controls were administered through intragastrical perfusion for 7 days.
Measurement of the rate for inhibition of thrombosis: on the 7th day after administration of drug, 30 minutes after the administration, each of rats was anesthetized with sodium pentobarbital, the left external jugular vein and right common carotid artery were separated, three segments of polyethylene tubes were used to form cannula, and then 5 cm weighed 4-suture was placed in the middle segment. These polyethylene tubes were filled with heparin-physiological saline (50 U/ml). When one end of the tube was inserted into the external jugular vein, one end of the tube was clamped and the end fixed by suture was inserted into the right common carotid artery. After this operation, bleeding was performed immediately and then stopped 15 minutes later, the suture was taken out quickly and weighed. The wet weight of thrombus was calculated by subtracting the suture weight from the total weight. The thrombosis inhibition rate was calculated according to the following formula. Inhibition rate (%)=[(Thrombus weight of the control group)−(Thrombus weight of the group administered with drug)]/(Thrombus weight of the control group)×100% Results: […]

The next series deals with cancer cells. The conditions noted are these: cited from earlier work.
Another series relates to platelets. The conditions noted are these: cited from earlier work.
Another series has as its target thrombin (Homo sapiens, UniProt P00734). The conditions noted are these: cited from earlier work.
The conditions of series [6]: oral administration, human body; cited from earlier work.

Molecules are shown by their SMILES. Like-named read-outs stand apart in the source and are kept apart here. Marks after values point to notes of the source that are not given here.

Turning to `COc1ccc([C@@H]2Sc3ccccc3N(CCN(C)C)C(=O)[C@@H]2OC(C)=O)cc1` [Diltiazem], the coronary blood flow in series [1] (30 min after drug) came to 110.36 ± 58.20 ml/100 g · min^−1; in [1] (60 min after drug), 119.11 ± 61.62 ml/100 g · min^−1; in series [1] (90 min after drug), 122.97 ± 64.44 ml/100 g · min^−1; in series [1] (120 min after drug), 119.15 ± 65.51 ml/100 g · min^−1; in series [1] (180 min after drug), 112.10 ± 60.59 ml/100 g · min^−1; in [1] (after ischemia before drug), 101.82 ± 54.71 ml/100 g · min^−1. The coronary blood flow in [1] (before ischemia (normal value)) is on record as 92.07 ± 46.98 ml/100 g · min^−1. The “coronary blood flow change rate” value in series [1] (30 min after drug) is 108.70 ± 3.32 %; in [1] (60 min after drug), 117.06 ± 5.17 %; in [1] (90 min after drug) it was 120.06 ± 7.27 %; in series [1] (120 min after drug), 116.97 ± 7.33 %; in [1] (180 min after drug), 112.21 ± 6.46 %; in [1] (after ischemia before drug), 110.34 ± 4.17%. Further, in series [2], the Infarction zone area is on record as 266.25 ± 63.4*** mm^2. For the same molecule, the Infraction zone/cardiac ventricle in [2] came out at 5.36 ± 1.70. Besides, the Infraction zone/heart in [2] is 2.27 ± 0.83. Also, the N-ST change rate is reported as 89.60 ± 8.40 % in series [3] (15 min after drug); 89.53 ± 15.49% in series [3] (30 min after drug); 86.82 ± 14.83% in [3] (45 min after drug); 87.48 ± 15.08% in [3] (60 min after drug); 81.41 ± 14.31 % in series [3] (90 min after drug); 77.22 ± 16.49 % in series [3] (120 min after drug). Further, the N-ST change rate in series [3] (180 min after drug) is recorded as 75.89 ± 19.59 %. Besides, the “acute myocardial ischemia (N-ST)” value in [3] (15 min after drug) is 24.83 ± 2.04; in series [3] (30 min after drug), 25.33 ± 4.08; in series [3] (45 min after drug), 23.17 ± 5.91; in series [3] (60 min after drug), 23.50 ± 4.85; in series [3] (90 min after drug), 21.50 ± 5.86; in series [3] (120 min after drug), 20.00 ± 6.00. The entries for the “acute myocardial ischemia (N-ST)” value in series [3] (180 min after drug) and in series [3] (before drug) were 20.67 ± 5.99 and 28.67, respectively. Also, the “degree of acute myocardial ischemia (Σ-ST)” value in series [3] (15 min after drug) turned out to be 182.00 ± 70.40 mv; in series [3] (30 min after drug), 149.83 ± 41.36 mv; in [3] (45 min after drug), 126.00 ± 47.35 mv; in series [3] (60 min after drug), 148.67 ± 71.87 mv; in series [3] (90 min after drug), 140.17 ± 63.46 mv; in series [3] (120 min after drug) it was 139.00 ± 69.20 mv. Also, the “degree of acute myocardial ischemia (Σ-ST)” value in series [3] (180 min after drug) came to 117.17 ± 54.27 mv; in [3] (before drug) it was 291.00 ± 40.39 mv. Also, the Σ-ST change rate is recorded as 61.01 ± 20.89 % in series [3] (15 min after drug); 48.75 ± 9.99 % in series [3] (30 min after drug); 42.43 ± 8.97 % in series [3] (45 min after drug); 47.78 ± 10.82 % in series [3] (60 min after drug); 54.98 ± 18.57 % in series [3] (90 min after drug); 52.21 ± 19.91 % in [3] (120 min after drug). The molecule further gave a Σ-ST change rate in series [3] (180 min after drug) of 45.99 ± 18.90 %. For the same molecule, the Duration of arrhythmia in [4] amounted to 13.2 ± 6.0 min. Further, in series [4], the “Incidence rate of VF” value is on record as 0* %. Moreover, the “Onset time of VP” value in [4] is 15.0 ± 10.8 s. In addition, the “Onset time of VT” value in [4] was 20 ± 8.8 s. For the same molecule, the Heart rate in series [4] (5 min after BaCl2) came out at 327 ± 64 beat/min; in series [4] (10 min after BaCl2), 360 ± 88 beat/min; in series [4] (20 min after BaCl2) it was 381 ± 71 beat/min; in series [4] (30 min after BaCl2) it was 399 ± 42 beat/min; in [4] (before BaCl2), 397 ± 53 beat/min. The “Wet weight of thrombus” value in series [5] (50 mg/kg intragastric, 7 days) amounted to 0.0200 ± 0.005 g. Besides, the inhibition at 50 mg/kg amounted to 32.9% in [5] (po, 168 h, 50 mg/kg intragastric, 7 days, read-out: Inhibition rate) and 33% in [5] (50 mg/kg, read-out: inhibition rate of thrombosis).
Consider `CC(C)=CCC[C@](C)(O)[C@H]1CC[C@]2(C)[C@@H]1[C@H](O)C[C@@H]1[C@@]3(C)CC[C@H](O[C@@H]4O[C@H](CO)[C@@H](O)[C@H](O)[C@H]4O[C@@H]4O[C@H](CO)[C@@H](O)[C@H](O)[C@H]4O)C(C)(C)[C@@H]3CC[C@]12C` [Ginsenoside Rg3], for which the anticancer activity result with cancer cells was “significant anticancer activity”. In addition, the “platelet aggregation induced by collagen or ADP” value in the series on platelets was “relatively strong inhibitory effects”.
As to `CC(C)=CCC[C@](C)(O)[C@H]1CC[C@]2(C)[C@@H]1[C@H](O)C[C@@H]1[C@@]3(C)CC[C@H](O)C(C)(C)[C@@H]3[C@@H](O[C@@H]3O[C@H](CO)[C@@H](O)[C@H](O)[C@H]3O)C[C@]12C` [Ginsenoside Rh1], the “conversion of fibrinogen to fibrin induced by thrombin” value at thrombin is listed as “significant inhibitory effects”. In addition, the anticancer activity entry in the series on cancer cells was “significant anticancer activity”.
As for `CC(C)=CCC[C@](C)(O)[C@H]1CC[C@]2(C)[C@@H]1[C@H](O)C[C@@H]1[C@@]3(C)CC[C@H](O[C@@H]4O[C@H](CO)[C@@H](O)[C@H](O)[C@H]4O)C(C)(C)[C@@H]3CC[C@]12C` [Rh2, ginsenoside Rh2], the anticancer activity result in the series on cancer cells is given as “significant anticancer activity”.
As to `CC(C)=CCC[C@](C)(O[C@@H]1O[C@H](CO[C@@H]2O[C@H](CO)[C@@H](O)[C@H](O)[C@H]2O)[C@@H](O)[C@H](O)[C@H]1O)[C@H]1CC[C@]2(C)[C@@H]1[C@H](O)C[C@@H]1[C@@]3(C)CC[C@H](O[C@@H]4O[C@H](CO)[C@@H](O)[C@H](O)[C@H]4O[C@@H]4O[C@H](CO)[C@@H](O)[C@H](O)[C@H]4O)C(C)(C)[C@@H]3CC[C@]12C` [ginsenoside-Rb1], the absorption rate in series [6] is given as 1%.
